Assay results taken from article PMC7127101 (Bioorganic & Medicinal Chemistry Letters, 2010).

Biological target: SARS-CoV 3CL^pro (Severe acute respiratory syndrome coronavirus, UniProt P0C6X7)
Type: biochemical

| Compound | Inhibition type | V max | fold smaller IC50 value compared with that of reference compounds |
| --- | --- | --- | --- |
| CC1=C(O)C(=O)C=C2C1=CC=C1[C@@]2(C)CC[C@@]2(C)[C@@H]3C[C@@H](C)C(=O)C[C@]3(C)CC[C@]12C [Compound 3, tingenone] | Competitive (4.0 ± 0.1) | – | – |
| CC1=C(O)C(=O)C=C2C1=CC=C1[C@@]2(C)CC[C@@]2(C)[C@@H]3C[C@](C)(C(=O)O)CC[C@]3(C)CC[C@]12C [Compound 1, celastrol] | Competitive (4.2 ± 0.6) | – | – |
| COC(=O)[C@]1(C)CC[C@]2(C)CC[C@]3(C)C4=CC=C5C(=CC(=O)C(O)=C5C)[C@]4(C)CC[C@@]3(C)[C@@H]2C1 [Compound 2, pristimerin] | Competitive (3.1 ± 0.0) | – | – |
| CC1=CC[C@]2(C)CC[C@]3(C)C4=CC=C5C(=CC(=O)C(O)=C5C)[C@]4(C)CC[C@@]3(C)[C@@H]2C1 [Compound 4, iguesterin] | Competitive (0.8 ± 0.2) | 44.4 ± 6.2 intensity min^−1 | 10 fold |
